# Measurements reported in patent publication US6706740B2, “Fungicidal heterocyclic aromatic amides and their compositions, methods of use and preparation” (Dow AgroSciences LLC, priority 1999, dated 2004).
# Like-named read-outs stand apart in the source and are kept apart here.
# Experiments:
# [1] = tested on: Ustilago maydis (USTIMA); assay: microbe, parasite or virus in culture; assay type: cell-based; conditions: Mycosarcoma maydis, read-out: USTIMA in vitro Growth Inhibition
# [2] = tested on: Magnaporthe grisea (Pyricularia oryzae—PYRIOR); assay: microbe, parasite or virus in culture; assay type: cell-based; conditions: Pyricularia oryzae, read-out: PYRIOR in vitro Growth Inhibition
# [3] = tested on: Leptosphaeria nodorum—LEPTNO; assay: Glume Blotch of Wheat, in vivo whole plant, 24 Hour Protectant; conditions: Leptosphaeria, control of fungal infection vs untreated plants, read-out: LEPTNO in vivo 1 Day Protectant
# [4] = tested on: Erysiphe graminis—ERYSGT; assay: Powdery Mildew of Wheat, in vivo whole plant, 24 Hour Protectant; conditions: Erysiphe, control of fungal infection vs untreated plants, read-out: ERYSGT in vivo 1 Day Protectant
# [5] = tested on: Puccinia recondita—PUCCRT; assay: Brown Rust of Wheat, in vivo whole plant, 24 Hour Protectant; conditions: Puccinia, control of fungal infection vs untreated plants, read-out: PUCCRT in vivo 1 Day Protectant
# [6] = tested on: Stagonospora nodorum (Leptosphaeria nodorum—LEPTNO); assay: In vitro fungal growth inhibition, Stagonospora nodorum (LEPTNO); assay type: cell-based; conditions: Leptosphaeria, read-out: LEPTNO in vitro Growth Inhibition
# [7] = tested on: Septoria tritici—SEPTTR; assay: Leaf Blotch of Wheat, in vivo whole plant, 24 Hour Protectant; conditions: Zymoseptoria tritici, 24 h, control of fungal infection vs untreated plants, read-out: SEPTTR in vivo 1 Day Protectant
# [8] = tested on: Rhizoctonia solani (RHIZSO); assay: microbe, parasite or virus in culture; assay type: cell-based; conditions: Rhizoctonia solani, read-out: RHIZSO in vitro Growth Inhibition
# [9] = tested on: Phytophthora infestans—PHYTIN; assay: whole plant or invertebrate; assay type: in vivo; conditions: Phytophthora, in Solanum lycopersicum, 24 h, read-out: PHYTIN in vivo 1 Day Protectant
# [10] = tested on: Mycosphaerella graminicola (Septoria tritici—SEPTTR); assay: In vitro fungal growth inhibition, Mycosphaerella graminicola (SEPTTR); assay type: cell-based; conditions: Zymoseptoria tritici, read-out: SEPTTR in vitro Growth Inhibition
# [11] = tested on: Phytophthora infestans (PHYTIN); assay: microbe, parasite or virus in culture; assay type: cell-based; conditions: Phytophthora infestans, read-out: PHYTIN in vitro Growth Inhibition
# [12] = 100 ppm spray, wheat, 24 hour protectant
# [13] = wheat plants sprayed at 100 ppm, inoculated after 24 hours
# [14] = 100 ppm spray, 24 hour protectant, wheat
compound,measurement,setting,value
COc1ccnc(C(=O)Nc2ccc(C(=O)Nc3cccc(C(F)(F)F)c3)cc2)c1O [Compound 449],inhibition at 25 ppm,[1],< 80%
same,inhibition at 25 ppm,[2],> 80%
same,pest or weed control at 100 ppm,[3]; [12],25 to 74%
same,pest or weed control at 100 ppm,[4]; [12],< 25%
same,pest or weed control at 100 ppm,[5]; [12],< 25%
same,inhibition at 25 ppm,[6]; 25 ppm in growth medium,< 80%
same,pest or weed control at 100 ppm,[7]; [12],25 to 74%
same,inhibition at 25 ppm,[8],> 80%
same,pest or weed control at 100 ppm,[9],< 25%
same,inhibition at 25 ppm,[10]; 25 ppm in growth medium,< 80%
same,inhibition at 25 ppm,[11],< 80%
COc1ccc(Oc2ccccc2NC(=O)c2nccc(OC)c2O)cc1 [Compound 429],inhibition at 25 ppm,[1],< 80%
same,inhibition at 25 ppm,[2],< 80%
same,pest or weed control at 100 ppm,[3]; [12],< 25%
same,pest or weed control at 100 ppm,[4]; [12],< 25%
same,pest or weed control at 100 ppm,[5]; [12],< 25%
same,inhibition at 25 ppm,[6]; 25 ppm in growth medium,< 80%
same,pest or weed control at 100 ppm,[7]; [12],< 25%
same,inhibition at 25 ppm,[8],< 80%
same,pest or weed control at 100 ppm,[9],< 25%
same,inhibition at 25 ppm,[10]; 25 ppm in growth medium,> 80%
same,inhibition at 25 ppm,[11],< 80%
CC1(C)CC(NC(=O)c2ccncc2O)CC(C)(C)C1 [Compound 505],inhibition at 25 ppm,[1],< 80%
same,inhibition at 25 ppm,[2],< 80%
same,pest or weed control at 100 ppm,[3]; [13],< 25%
same,pest or weed control at 100 ppm,[4]; [13],< 25%
same,pest or weed control at 100 ppm,[5]; [13],< 25%
same,inhibition at 25 ppm,[6]; 25 ppm in the growth medium,< 80%
same,pest or weed control at 100 ppm,[7]; [13],< 25%
same,inhibition at 25 ppm,[8],< 80%
same,pest or weed control at 100 ppm,[9],< 25%
same,inhibition at 25 ppm,[10]; 25 ppm in the growth medium,< 80%
same,inhibition at 25 ppm,[11],< 80%
COc1ccnc(C(=O)NC/C=C(\C)CCC=C(C)C)c1O [Compound 242],inhibition at 25 ppm,[1],> 80%
same,inhibition at 25 ppm,[2],> 80%
same,pest or weed control at 100 ppm,[3]; [14],< 25%
same,pest or weed control at 100 ppm,[4]; [14],< 25%
same,pest or weed control at 100 ppm,[5]; [14],< 25%
same,inhibition at 25 ppm,[6]; 25 ppm in growth medium,> 80%
same,pest or weed control at 100 ppm,[7]; [14],25 to 74%
same,inhibition at 25 ppm,[8],> 80%
same,pest or weed control at 100 ppm,[9],< 25%
same,inhibition at 25 ppm,[10]; 25 ppm in growth medium,> 80%
same,inhibition at 25 ppm,[11],> 80%
CSc1ccnc(C(=O)NC2CC(C)(C)CC(C)(C)C2)c1O [Compound 477],inhibition at 25 ppm,[1],< 80%
same,inhibition at 25 ppm,[2],< 80%
same,pest or weed control at 100 ppm,[3]; [13],25 to 74%
same,pest or weed control at 100 ppm,[4]; [13],< 25%
same,pest or weed control at 100 ppm,[5]; [13],< 25%
same,inhibition at 25 ppm,[6]; 25 ppm in the growth medium,< 80%
same,pest or weed control at 100 ppm,[7]; [13],25 to 74%
same,inhibition at 25 ppm,[8],< 80%
same,pest or weed control at 100 ppm,[9],< 25%
same,inhibition at 25 ppm,[10]; 25 ppm in the growth medium,< 80%
same,inhibition at 25 ppm,[11],< 80%
O=C(Nc1nccs1)c1ncccc1O [Compound 235],inhibition at 25 ppm,[1],> 80%
same,inhibition at 25 ppm,[2],> 80%
same,pest or weed control at 100 ppm,[3]; [14],< 25%
same,pest or weed control at 100 ppm,[4]; [14],< 25%
same,pest or weed control at 100 ppm,[5]; [14],< 25%
same,inhibition at 25 ppm,[6]; 25 ppm in growth medium,> 80%
same,pest or weed control at 100 ppm,[7]; [14],< 25%
same,inhibition at 25 ppm,[8],> 80%
same,pest or weed control at 100 ppm,[9],< 25%
same,inhibition at 25 ppm,[10]; 25 ppm in growth medium,> 80%
same,inhibition at 25 ppm,[11],> 80%
COc1ccnc(C(=O)NC2COC(=O)CC(c3ccccc3)C(=O)OC2)c1O (centres unmarked) [Compound 375],inhibition at 25 ppm,[1],< 80%
same,inhibition at 25 ppm,[2],< 80%
same,pest or weed control at 100 ppm,[3]; [12],25 to 74%
same,pest or weed control at 100 ppm,[4]; [12],< 25%
same,pest or weed control at 100 ppm,[5]; [12],< 25%
same,inhibition at 25 ppm,[6]; 25 ppm in growth medium,< 80%
same,pest or weed control at 100 ppm,[7]; [12],25 to 74%
same,inhibition at 25 ppm,[8],< 80%
same,pest or weed control at 100 ppm,[9],< 25%
same,inhibition at 25 ppm,[10]; 25 ppm in growth medium,< 80%
same,inhibition at 25 ppm,[11],< 80%
